In EP0136831A2, “Azahomoerythromycin B derivatives and intermediates thereof” (PFIZER INC., priority 1983, dated 1985):
Values after ≈ are worked out from the molar mass of the structure shown. Read-outs that look alike come from different tables or passages of the source.

Columns and labels:
Ent. aerog. = experiment: MIC in brain heart infusion (BHI) broth; format: cell-based; conditions: strain 040
E. coli = experiment: MIC in brain heart infusion (BHI) broth; format: cell-based; conditions: Escherichia coli
Kleb. oxy. = experiment: MIC in brain heart infusion (BHI) broth; format: cell-based; conditions: strain 024
Description: (§1) Generally twelve 2 fold dilutions of the test compound. are employed, with initial concentration of the test drug being in the range of 50 to 200 mcg/ml. The susceptibility (MIC) of the test organism is accepted as the lowest concentration of compound capable of producing complete inhibition of growth as judged by the naked eye.

H. influ. = experiment: MIC in brain heart infusion (BHI) broth; format: cell-based
Description: as §1

Strep. faec. = experiment: MIC in brain heart infusion (BHI) broth; format: cell-based; conditions: strain 006
Description: as §1

Past. mult. = experiment: MIC in brain heart infusion (BHI) broth; format: cell-based; conditions: strain 001
Description: as §1

Neiss. sic. = experiment: MIC in brain heart infusion (BHI) broth; format: cell-based; conditions: strain 000
Description: as §1

Ent. cloac. = experiment: MIC in brain heart infusion (BHI) broth; format: cell-based; conditions: strain 009
Description: as §1

Strep. pyog. = experiment: MIC in brain heart infusion (BHI) broth; format: cell-based; conditions: strain 203
Description: as §1

Prov. strua. = experiment: MIC in brain heart infusion (BHI) broth; format: cell-based; conditions: strain 013
Description: as §1

Staph. epi = experiment: MIC in brain heart infusion (BHI) broth; format: cell-based; conditions: strain 111
Description: as §1

Serr. mar. = experiment: MIC in brain heart infusion (BHI) broth; format: cell-based; conditions: strain 017
Description: as §1

Staph. aur. = experiment: MIC in brain heart infusion (BHI) broth; format: cell-based
Description: as §1

Kleb. pn. = experiment: MIC in brain heart infusion (BHI) broth; format: cell-based; conditions: for MIC: strain 009
[1] = Microbiological (bioassay) determination of serum levels after oral dosage; format: in vivo; conditions: mice
Protocol: Additionally, the compounds (II) and (VI) are tested in vivo by the well-known mouse protection test, or by a microbiological (bioassay) determination of serum levels in a variety of mammals (e.g., mouse, rat, dog).

[2] = strain 036, read-out: MIC Values
[3] = strain 038, read-out: MIC Values
[4] = strain 042, read-out: MIC Values
[5] = strain 051, read-out: MIC Values
[6] = strain 073, read-out: MIC Values
[7] = strain 078, read-out: MIC Values
[8] = strain 081, read-out: MIC Values

| SMILES | MIC (Ent. aerog.) [µg/mL] | MIC (E. coli; strain 125) [µg/mL] | MIC (E. coli; strain 129) [µg/mL] | MIC (E. coli; strain 266) [µg/mL] | MIC (E. coli; strain 470) [µg/mL] | MIC (Kleb. oxy.) [µg/mL] | MIC (Strep. faec.) [µg/mL] | MIC (Past. mult.) [µg/mL] | MIC (Ent. cloac.) [µg/mL] | MIC (Strep. pyog.) [µg/mL] | MIC (Prov. strua.) [µg/mL] | MIC (Staph. epi) [µg/mL] | MIC (Serr. mar.) [µg/mL] | MIC (Staph. aur.; strain 005) [µg/mL] | MIC (Staph. aur.; strain 052) [µg/mL] | MIC (Staph. aur.; strain 400) [µg/mL] | MIC (Kleb. pn.) [µg/mL] | MIC (H. influ.; [2]) [µg/mL] | MIC (H. influ.; [3]) [µg/mL] | MIC (H. influ.; [4]) [µg/mL] | also measured |
| --- | --- | --- | --- | --- | --- | --- | --- | --- | --- | --- | --- | --- | --- | --- | --- | --- | --- | --- | --- | --- | --- |
| CC[C@H]1OC(=O)[C@H](C)[C@@H](O[C@H]2C[C@@](C)(OC)[C@@H](O)[C@H](C)O2)[C@H](C)[C@@H](O[C@@H]2O[C@H](C)C[C@H](N(C)C)[C@H]2O)[C@](C)(O)C[C@@H](C)C(=O)[C@H](C)[C@@H](O)[C@]1(C)O [(1), Erythromycin A] | > 50 | > 50 | > 50 | > 50 | 1.56 (≈ 2.13 µM) | > 50 | 0.39 (≈ 0.531 µM) | 0.78 (≈ 1.06 µM) | > 50 | 0.025 (≈ 0.0341 µM) | > 50 | 0.05 (≈ 0.0681 µM) | > 50 | 0.05 (≈ 0.0681 µM) | 0.1 (≈ 0.136 µM) | 6.25 (≈ 8.52 µM) | > 50 |  |  |  | MIC (H. influ.; read-out: MIC Values, strain 012): 3.12 µg/mL (≈ 4.25 µM); MIC (H. influ.; read-out: MIC Values, strain 036): 3.12 µg/mL (≈ 4.25 µM); MIC (H. influ.; read-out: MIC Values, strain 038): 1.56 µg/mL (≈ 2.13 µM); MIC (H. influ.; read-out: MIC Values, strain 042): 3.12 µg/mL (≈ 4.25 µM); MIC (H. influ.; read-out: MIC Values, strain 051): 3.12 µg/mL (≈ 4.25 µM); MIC (H. influ.; read-out: MIC Values, strain 073): 3.12 µg/mL (≈ 4.25 µM); MIC (H. influ.; read-out: MIC Values, strain 078): 1.56 µg/mL (≈ 2.13 µM); MIC (H. influ.; read-out: MIC Values, strain 081): 3.12 µg/mL (≈ 4.25 µM); MIC (Neiss. sic.): 3.12 µg/mL (≈ 4.25 µM) |
| CC[C@H]1OC(=O)[C@H](C)[C@@H](O[C@H]2C[C@@](C)(OC)[C@@H](O)[C@H](C)O2)[C@H](C)[C@@H](O[C@@H]2O[C@H](C)C[C@H](N(C)C)[C@H]2O)[C@](C)(O)C[C@@H](C)CN(C)[C@H](C)[C@@H](O)[C@]1(C)O [(2), 9-Deoxo-9a-methyl-9a-aza-9a-homoerythromycin A] |  |  | 6.25 (≈ 8.34 µM) | 6.25 (≈ 8.34 µM) | 0.78 (≈ 1.04 µM) | 25 (≈ 33.4 µM) | 1.56 (≈ 2.08 µM) | 0.1 (≈ 0.134 µM) | 25 (≈ 33.4 µM) | 0.025 (≈ 0.0334 µM) | 50 (≈ 66.8 µM) | 0.1 (≈ 0.134 µM) |  | 0.2 (≈ 0.267 µM) | 0.39 (≈ 0.521 µM) | 25 (≈ 33.4 µM) |  | 0.78 (≈ 1.04 µM) | 0.78 (≈ 1.04 µM) | 0.78 (≈ 1.04 µM) | MIC (H. influ.; [5]): 1.56 µg/mL (≈ 2.08 µM); MIC (H. influ.; [6]): 0.78 µg/mL (≈ 1.04 µM); MIC (H. influ.; [7]): 0.39 µg/mL (≈ 0.521 µM); MIC (H. influ.; [8]): 0.78 µg/mL (≈ 1.04 µM) |
| CC[C@H]1OC(=O)[C@H](C)[C@@H](O[C@H]2C[C@@](C)(OC)[C@@H](O)[C@H](C)O2)[C@H](C)[C@@H](O[C@@H]2O[C@H](C)C[C@H](N(C)C)[C@H]2O)[C@](C)(O)C[C@@H](C)CN(C)[C@H](C)[C@@H](O)[C@H]1C [compound (II), 9-Deoxo-9a-methyl-9a-aza-9a-homoerythromycin B] | > 50 | 50 (≈ 68.2 µM) | 25 (≈ 34.1 µM) | 25 (≈ 34.1 µM) | 0.39 (≈ 0.532 µM) | 50 (≈ 68.2 µM) | 1.56 (≈ 2.13 µM) | 0.1 (≈ 0.136 µM) | > 50 | 0.025 (≈ 0.0341 µM) | > 50 | 0.2 (≈ 0.273 µM) | > 50 | 0.39 (≈ 0.532 µM) | 0.39 (≈ 0.532 µM) | > 50 | 50 (≈ 68.2 µM) | 3.12 (≈ 4.26 µM) | 3.12 (≈ 4.26 µM) | 1.56 (≈ 2.13 µM) | absorption after oral dosage [1]: exceptionally well absorbed; serum levels [1]: exceptionally high and long lasting; MIC (H. influ.; strain 012, read-out: MIC Values): 1.56 µg/mL (≈ 2.13 µM); MIC (H. influ.; [5]): 3.12 µg/mL (≈ 4.26 µM); MIC (H. influ.; [6]): 0.2 µg/mL (≈ 0.273 µM); MIC (H. influ.; [7]): 0.78 µg/mL (≈ 1.06 µM); MIC (H. influ.; [8]): 1.56 µg/mL (≈ 2.13 µM); MIC Values (Kleb. pn.; strain 031): 50 µg/mL (≈ 68.2 µM) |
